According to PubChem BioAssay AID2060600 (Molecular Pharmacology Branch, DTP, NCI, 2025):
One block for each compound: values may come before it.

Tested on: 996289-038-R-J1-PDC complex spheroid viability
Assay: Anticancer human tumor 996289-038-R-J1-PDC patient-derived colon adenocarcinoma cell line growth inhibition [CLK]
Conditions: for IC50: curve of first compound; for viability, T/C: stronger effect = lower value
In short: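 Multi-cell-type spheroids combined patient-derived tumor cells with HUVEC endothelial cells and human mesenchymal stem cells. Paired agents were dosed in half-log steps down from about clinical Cmax, or from 10 microM where Cmax was unknown.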

[1] = second compound 0.0316 µM, first compound 0.0316 µM
[2] = second compound 0.0316 µM, first compound 0.1 µM
[3] = second compound 0.0316 µM, first compound 0.316 µM
[4] = second compound 0.0316 µM, first compound 1 µM
[5] = second compound 0.0316 µM, first compound 3.16 µM
[6] = second compound 0.0316 µM, first compound 10 µM
[7] = second compound 0.1 µM, first compound 0.0316 µM
[8] = second compound 0.1 µM, first compound 0.1 µM
[9] = second compound 0.1 µM, first compound 0.316 µM
[10] = second compound 0.1 µM, first compound 1 µM
[11] = second compound 0.1 µM, first compound 3.16 µM
[12] = second compound 0.1 µM, first compound 10 µM
[13] = second compound 0.316 µM, first compound 0.0316 µM
[14] = second compound 0.316 µM, first compound 0.1 µM
[15] = second compound 0.316 µM, first compound 0.316 µM
[16] = second compound 0.316 µM, first compound 1 µM
[17] = second compound 0.316 µM, first compound 3.16 µM
[18] = second compound 0.316 µM, first compound 10 µM
[19] = second compound 1 µM, first compound 0.0316 µM
[20] = second compound 1 µM, first compound 0.1 µM
[21] = second compound 1 µM, first compound 0.316 µM
[22] = second compound 1 µM, first compound 1 µM
[23] = second compound 1 µM, first compound 3.16 µM
[24] = second compound 1 µM, first compound 10 µM
[25] = second compound 3.16 µM, first compound 0.0316 µM
[26] = second compound 3.16 µM, first compound 0.1 µM
[27] = second compound 3.16 µM, first compound 0.316 µM
[28] = second compound 3.16 µM, first compound 1 µM
[29] = second compound 3.16 µM, first compound 3.16 µM
[30] = second compound 3.16 µM, first compound 10 µM
[31] = second compound 10 µM, first compound 0.0316 µM
[32] = second compound 10 µM, first compound 0.1 µM
[33] = second compound 10 µM, first compound 0.316 µM
[34] = second compound 10 µM, first compound 1 µM
[35] = second compound 10 µM, first compound 3.16 µM
[36] = second compound 10 µM, first compound 10 µM
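Note: spheroids exposed to the agents for 7 days before readout.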

Compound: COc1ccc([C@@H](O)c2cc(-c3ncnc4cc(N5CCOCC5)ccc34)c(F)cc2Cl)nn1 + CN1CCN(c2cc(C(=O)Nc3cc4cc(-c5cnn(C)c5)ccc4cn3)ccn2)CC1
IC50 (second compound 0.0316 µM): > 10 µM
IC50 (second compound 0.1 µM): 6.69 µM
IC50 (second compound 0.316 µM): 3.19 µM
IC50 (second compound 1 µM): < 0.0316 µM
IC50 (second compound 3.16 µM): < 0.0316 µM
IC50 (second compound 10 µM): < 0.0316 µM
viability, T/C [1]: 93.2%
viability, T/C [2]: 94.8%
viability, T/C [3]: 91.7%
viability, T/C [4]: 85.7%
viability, T/C [5]: 76.6%
viability, T/C [6]: 50.2%
viability, T/C [7]: 85.3%
viability, T/C [8]: 95.1%
viability, T/C [9]: 87.8%
viability, T/C [10]: 79.8%
viability, T/C [11]: 67.7%
viability, T/C [12]: 40.8%
viability, T/C [13]: 61.1%
viability, T/C [14]: 64.8%
viability, T/C [15]: 61.9%
viability, T/C [16]: 59.8%
viability, T/C [17]: 49.8%
viability, T/C [18]: 27.1%
viability, T/C [19]: 3.25%
viability, T/C [20]: 3.83%
viability, T/C [21]: 3.78%
viability, T/C [22]: 4.19%
viability, T/C [23]: 3.66%
viability, T/C [24]: 3.61%
viability, T/C [25]: 1.19%
viability, T/C [26]: 0.85%
viability, T/C [27]: 1.09%
viability, T/C [28]: 1.26%
viability, T/C [29]: 2.9%
viability, T/C [30]: 2.02%
viability, T/C [31]: 0.92%
viability, T/C [32]: 0.41%
viability, T/C [33]: 1.74%
viability, T/C [34]: 0.52%
viability, T/C [35]: 0.52%
viability, T/C [36]: 0.65%

Compound: COC1C=CCC(C)C(C)S(=O)(=O)NC(=O)c2ccc3c(c2)N(CC2CCC21)CC1(CCCc2cc(Cl)ccc21)CO3 (stereo not given) + CNC(=O)c1ccc(Nc2nc(OC3CCCC3)c3c(-c4ccc5nc(C)oc5c4)c[nH]c3n2)c(OC)c1
IC50 (second compound 0.0316 µM): 6.74 µM
IC50 (second compound 0.1 µM): 6.73 µM
IC50 (second compound 0.316 µM): 2.94 µM
IC50 (second compound 1 µM): 1.18 µM
IC50 (second compound 3.16 µM): 0.466 µM
IC50 (second compound 10 µM): 0.519 µM
viability, T/C [1]: 131%
viability, T/C [2]: 119%
viability, T/C [3]: 109%
viability, T/C [4]: 92.1%
viability, T/C [5]: 74.6%
viability, T/C [6]: 37.2%
viability, T/C [7]: 124%
viability, T/C [8]: 117%
viability, T/C [9]: 109%
viability, T/C [10]: 85.9%
viability, T/C [11]: 72.2%
viability, T/C [12]: 39.1%
viability, T/C [13]: 91.1%
viability, T/C [14]: 78.1%
viability, T/C [15]: 74.3%
viability, T/C [16]: 57.5%
viability, T/C [17]: 52.2%
viability, T/C [18]: 36.4%
viability, T/C [19]: 71.3%
viability, T/C [20]: 65.2%
viability, T/C [21]: 58.8%
viability, T/C [22]: 49.4%
viability, T/C [23]: 45.6%
viability, T/C [24]: 34.4%
viability, T/C [25]: 70.1%
viability, T/C [26]: 59%
viability, T/C [27]: 52.2%
viability, T/C [28]: 45.7%
viability, T/C [29]: 40.4%
viability, T/C [30]: 33.1%
viability, T/C [31]: 59.3%
viability, T/C [32]: 54.4%
viability, T/C [33]: 53%
viability, T/C [34]: 45.9%
viability, T/C [35]: 43.2%
viability, T/C [36]: 34%

Now from value to compound, other results behind:

IC50 (second compound 0.0316 µM): 5.2 µM
IC50 (second compound 0.1 µM): 4.82 µM
IC50 (second compound 0.316 µM): 3.79 µM
IC50 (second compound 1 µM): 2.28 µM
IC50 (second compound 3.16 µM): 1.5 µM
IC50 (second compound 10 µM): 1.4 µM
Compound: C=C(F)C(=O)N1CCN(c2nc(OCC3CCCN3C)nc3c2CCN(c2cccc4cccc(Cl)c24)C3)CC1CC#N (stereo not given) + CNC(=O)c1ccc(Nc2nc(OC3CCCC3)c3c(-c4ccc5nc(C)oc5c4)c[nH]c3n2)c(OC)c1
viability, T/C [1]: 127%
viability, T/C [2]: 129%
viability, T/C [3]: 116%
viability, T/C [4]: 121%
viability, T/C [5]: 86.7%
viability, T/C [6]: 1.33%
viability, T/C [7]: 116%
viability, T/C [8]: 115%
viability, T/C [9]: 106%
viability, T/C [10]: 107%
viability, T/C [11]: 77.9%
viability, T/C [12]: 1%
viability, T/C [13]: 75.2%
viability, T/C [14]: 72.2%
viability, T/C [15]: 72.6%
viability, T/C [16]: 75.7%
viability, T/C [17]: 57.4%
viability, T/C [18]: 2.02%
viability, T/C [19]: 62.9%
viability, T/C [20]: 62.9%
viability, T/C [21]: 59.9%
viability, T/C [22]: 64.7%
viability, T/C [23]: 45.1%
viability, T/C [24]: 0.61%
viability, T/C [25]: 59.8%
viability, T/C [26]: 59.4%
viability, T/C [27]: 56.5%
viability, T/C [28]: 56.8%
viability, T/C [29]: 38.2%
viability, T/C [30]: 1.01%
viability, T/C [31]: 61.9%
viability, T/C [32]: 59%
viability, T/C [33]: 56.2%
viability, T/C [34]: 57.2%
viability, T/C [35]: 33.5%
viability, T/C [36]: 0.31%

IC50 (second compound 0.0316 µM): > 10 µM
IC50 (second compound 0.1 µM): > 10 µM
IC50 (second compound 0.316 µM): > 10 µM
IC50 (second compound 1 µM): > 10 µM
IC50 (second compound 3.16 µM): > 10 µM
IC50 (second compound 10 µM): > 10 µM
Compound: C=CC(=O)N1CCN(c2nc(=O)n(-c3c(C)ccnc3C(C)C)c3nc(-c4c(O)cccc4F)c(F)cc23)C(C)C1 (stereo not given) + CNC(=O)c1ccc(Nc2nc(OC3CCCC3)c3c(-c4ccc5nc(C)oc5c4)c[nH]c3n2)c(OC)c1
viability, T/C [1]: 110%
viability, T/C [2]: 105%
viability, T/C [3]: 109%
viability, T/C [4]: 121%
viability, T/C [5]: 126%
viability, T/C [6]: 121%
viability, T/C [7]: 124%
viability, T/C [8]: 109%
viability, T/C [9]: 121%
viability, T/C [10]: 112%
viability, T/C [11]: 137%
viability, T/C [12]: 123%
viability, T/C [13]: 81%
viability, T/C [14]: 76.5%
viability, T/C [15]: 76.5%
viability, T/C [16]: 89.1%
viability, T/C [17]: 88.9%
viability, T/C [18]: 82%
viability, T/C [19]: 68.7%
viability, T/C [20]: 63.5%
viability, T/C [21]: 66.8%
viability, T/C [22]: 68.3%
viability, T/C [23]: 74.1%
viability, T/C [24]: 68.7%
viability, T/C [25]: 57.1%
viability, T/C [26]: 59.5%
viability, T/C [27]: 59%
viability, T/C [28]: 61.7%
viability, T/C [29]: 70.3%
viability, T/C [30]: 59.2%
viability, T/C [31]: 58.7%
viability, T/C [32]: 59.9%
viability, T/C [33]: 58%
viability, T/C [34]: 64.9%
viability, T/C [35]: 70.5%
viability, T/C [36]: 56.8%

IC50 (second compound 0.0316 µM): > 10 µM
IC50 (second compound 0.1 µM): > 10 µM
IC50 (second compound 0.316 µM): 9.36 µM
IC50 (second compound 1 µM): 5.68 µM
IC50 (second compound 3.16 µM): 4.68 µM
IC50 (second compound 10 µM): 4.51 µM
Compound: CCCS(=O)(=O)Nc1ccc(F)c(C(=O)c2c[nH]c3ncc(-c4ccc(Cl)cc4)cc23)c1F + CNC(=O)c1ccc(Nc2nc(OC3CCCC3)c3c(-c4ccc5nc(C)oc5c4)c[nH]c3n2)c(OC)c1
viability, T/C [1]: 125%
viability, T/C [2]: 105%
viability, T/C [3]: 120%
viability, T/C [4]: 131%
viability, T/C [5]: 124%
viability, T/C [6]: 83.4%
viability, T/C [7]: 116%
viability, T/C [8]: 133%
viability, T/C [9]: 124%
viability, T/C [10]: 118%
viability, T/C [11]: 119%
viability, T/C [12]: 76.7%
viability, T/C [13]: 81.2%
viability, T/C [14]: 84.5%
viability, T/C [15]: 82.8%
viability, T/C [16]: 84.8%
viability, T/C [17]: 82.7%
viability, T/C [18]: 48%
viability, T/C [19]: 73.2%
viability, T/C [20]: 70%
viability, T/C [21]: 64.9%
viability, T/C [22]: 70.6%
viability, T/C [23]: 64.8%
viability, T/C [24]: 35.6%
viability, T/C [25]: 63.8%
viability, T/C [26]: 67.5%
viability, T/C [27]: 64.1%
viability, T/C [28]: 68.1%
viability, T/C [29]: 58.4%
viability, T/C [30]: 31.8%
viability, T/C [31]: 62.9%
viability, T/C [32]: 60.2%
viability, T/C [33]: 59.8%
viability, T/C [34]: 66.9%
viability, T/C [35]: 60.3%
viability, T/C [36]: 26.1%
